# In patent publication US7300939B2, “Substituted 1-propiolylpiperazine compounds, their preparation and use” (Gruenenthal GmbH, priority 2005, dated 2007):
# Counter-ions that a name gives are not always drawn.
# Columns and labels:
# [1] = molecular target: T1, mGluR5 receptor (Sus scrofa, UniProt I3LUI7); assay: [3H]-MPEP binding in the mGluR5 receptor binding assay (pig brain homogenate); details: for mGluR5-receptor (% inhibition 10 μM) in pigs: pig brain homogenate, 5 nM [3H]-MPEP
# T1 construct: from tissue; host or cells: pig brain halves without medulla, cerebellum and pons
# Description: I. Method the Determination of the Inhibition of the [^3H]-MPEP Binding in the mGluR5 Receptor Binding Assay
# Pig brain homogenate is prepared by homogenization (Polytron PT 3000, Kinematica AG, 10,000 revolutions per minute 90 seconds) of pig brain halves without medulla, cerebellum and pons in a buffer solution having a pH of 8.0 (30 mM of hepes, Sigma, order no. H3375+1 tablet of Complete to 100 ml, Roche Diagnostics, order no. 1836145) in a ratio of 1:20 (brain weight/volume) and differential centrifugation at 900×g and 40,000×g. In each case 450 μg of protein from brain homogenate are incubated with 5 nM [^3H]-MPEP (Tocris, order no. R1212) (MPEP=2-methyl-6-(3-methoxyphenyl)ethynylpyridine) and the compounds to be investigated (10 μM in the test) in a buffer solution (as above) in 250 μl incubation batches in 96-well microtiter plates at room temperature 60 min.
# Thereafter, the batches are filtered with the aid of a Brandel cell harvester (Brandel, Robotic 9600 model) onto Unifilter plates with glass fiber filter mats (Perkin Elmer, order no. 6005177) and then rinsed with buffer solution (as above) 3 times with 250 μl per sample each time. The filter plates are then dried 60 min at 55° C. 30 μl Ultima Gold™ scintillator (Packard BioScience, order no. 6013159) are subsequently added per well and, after 3 hours, the samples are measured on a β-counter (Mikrobeta, Perkin Elmer). The non-specific binding is determined by addition of 10 μM of MPEP (Tocris, order no. 1212).
# [2] = molecular target: T2, mGluR5 receptor (Rattus norvegicus, UniProt P31424); assay: Ca2+ influx in the mGluR5 receptor assay (rat cortical neurons, FlexStation); type: cell-based; details: Table I; 10 μM DHPG
# T2 construct: Cortical neurons are prepared from postnatal rats (P2-6) under sterile conditions; endogenous in cells; host or cells: primary cortical neurons from postnatal rats (P2-6)
# Text: II. Method Determination of the Ca^2+ Influx in the mGluR5 Receptor Assay
# An agonistic and/or antagonistic action of substances can be determined with the following assay on the mGluR5 receptor of the rat species. According to this assay, the intracellular release of Ca^2+ after activation of the mGluR5 receptor is quantified with the aid of a Ca^2+-sensitive dyestuff (Fluo-4 type, Molecular Probes Europe BV, Leiden, Holland) in a FlexStation (Molecular Devices, Sunnyvale, USA).
# Preparation of Cortical Neurons: […]
# For the functional investigation, the cells are loaded with 2 μM of Fluo-4 and 0.01 vol. % Pluronic F127 (Molecular Probes Europe BV, Leiden, Holland) in HBSS buffer solution (Hank's buffer saline solution, Gibco Invitrogen GmbH, Karlsruhe, Germany) 30 min at 37° C. […] The Ca^2+-dependent fluorescence is measured before and after the addition of substances (λex=485 nm, λem=525 nm). Quantification is effected by measurement of the highest fluorescence intensity over time. […] After incubation 3 minutes, 10 μM of DHPG ((S)-3,5-dihydroxyphenylglycine, Tocris Biotrend Chemikalien GmbH, Cologne, Germany) are applied and the influx of Ca^2+ is determined simultaneously. mGluR5 antagonists led to a suppression of the Ca^2+ influx. […]
# [3] = tested on: rats; assay: Formalin test in rats; type: in vivo, rat
# T1 sequence (I3LUI7 19-1212): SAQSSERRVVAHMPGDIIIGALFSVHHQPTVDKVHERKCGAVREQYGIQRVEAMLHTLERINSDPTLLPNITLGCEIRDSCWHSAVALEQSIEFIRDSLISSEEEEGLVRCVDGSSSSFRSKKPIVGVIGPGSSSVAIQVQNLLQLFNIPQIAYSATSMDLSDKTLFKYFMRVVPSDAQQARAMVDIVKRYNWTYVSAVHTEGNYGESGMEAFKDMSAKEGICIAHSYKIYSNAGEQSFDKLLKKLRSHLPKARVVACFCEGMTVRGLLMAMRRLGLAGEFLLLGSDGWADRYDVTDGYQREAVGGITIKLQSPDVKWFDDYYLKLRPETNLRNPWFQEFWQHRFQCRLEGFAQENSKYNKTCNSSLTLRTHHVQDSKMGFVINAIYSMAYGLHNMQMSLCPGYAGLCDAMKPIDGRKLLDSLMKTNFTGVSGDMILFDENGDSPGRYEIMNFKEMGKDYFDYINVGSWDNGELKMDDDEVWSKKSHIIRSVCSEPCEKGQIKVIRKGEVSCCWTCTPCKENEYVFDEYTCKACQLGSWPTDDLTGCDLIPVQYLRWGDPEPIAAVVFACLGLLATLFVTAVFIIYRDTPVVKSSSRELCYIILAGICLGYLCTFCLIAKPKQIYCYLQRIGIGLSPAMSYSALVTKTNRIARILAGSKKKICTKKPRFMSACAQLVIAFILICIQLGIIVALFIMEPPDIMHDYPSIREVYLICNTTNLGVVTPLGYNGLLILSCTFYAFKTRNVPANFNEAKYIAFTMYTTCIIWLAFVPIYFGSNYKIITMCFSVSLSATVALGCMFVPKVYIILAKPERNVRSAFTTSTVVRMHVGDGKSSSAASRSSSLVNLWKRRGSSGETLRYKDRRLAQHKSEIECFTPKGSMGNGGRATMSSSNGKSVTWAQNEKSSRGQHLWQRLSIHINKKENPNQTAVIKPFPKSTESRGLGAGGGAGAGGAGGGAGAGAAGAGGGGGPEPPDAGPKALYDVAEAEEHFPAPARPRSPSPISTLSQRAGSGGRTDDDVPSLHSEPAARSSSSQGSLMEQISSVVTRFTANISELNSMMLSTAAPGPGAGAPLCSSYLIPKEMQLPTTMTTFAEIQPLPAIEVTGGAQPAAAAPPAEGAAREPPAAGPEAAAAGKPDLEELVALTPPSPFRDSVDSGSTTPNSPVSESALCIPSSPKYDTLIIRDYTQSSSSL
# T2 sequence (P31424 21-1203): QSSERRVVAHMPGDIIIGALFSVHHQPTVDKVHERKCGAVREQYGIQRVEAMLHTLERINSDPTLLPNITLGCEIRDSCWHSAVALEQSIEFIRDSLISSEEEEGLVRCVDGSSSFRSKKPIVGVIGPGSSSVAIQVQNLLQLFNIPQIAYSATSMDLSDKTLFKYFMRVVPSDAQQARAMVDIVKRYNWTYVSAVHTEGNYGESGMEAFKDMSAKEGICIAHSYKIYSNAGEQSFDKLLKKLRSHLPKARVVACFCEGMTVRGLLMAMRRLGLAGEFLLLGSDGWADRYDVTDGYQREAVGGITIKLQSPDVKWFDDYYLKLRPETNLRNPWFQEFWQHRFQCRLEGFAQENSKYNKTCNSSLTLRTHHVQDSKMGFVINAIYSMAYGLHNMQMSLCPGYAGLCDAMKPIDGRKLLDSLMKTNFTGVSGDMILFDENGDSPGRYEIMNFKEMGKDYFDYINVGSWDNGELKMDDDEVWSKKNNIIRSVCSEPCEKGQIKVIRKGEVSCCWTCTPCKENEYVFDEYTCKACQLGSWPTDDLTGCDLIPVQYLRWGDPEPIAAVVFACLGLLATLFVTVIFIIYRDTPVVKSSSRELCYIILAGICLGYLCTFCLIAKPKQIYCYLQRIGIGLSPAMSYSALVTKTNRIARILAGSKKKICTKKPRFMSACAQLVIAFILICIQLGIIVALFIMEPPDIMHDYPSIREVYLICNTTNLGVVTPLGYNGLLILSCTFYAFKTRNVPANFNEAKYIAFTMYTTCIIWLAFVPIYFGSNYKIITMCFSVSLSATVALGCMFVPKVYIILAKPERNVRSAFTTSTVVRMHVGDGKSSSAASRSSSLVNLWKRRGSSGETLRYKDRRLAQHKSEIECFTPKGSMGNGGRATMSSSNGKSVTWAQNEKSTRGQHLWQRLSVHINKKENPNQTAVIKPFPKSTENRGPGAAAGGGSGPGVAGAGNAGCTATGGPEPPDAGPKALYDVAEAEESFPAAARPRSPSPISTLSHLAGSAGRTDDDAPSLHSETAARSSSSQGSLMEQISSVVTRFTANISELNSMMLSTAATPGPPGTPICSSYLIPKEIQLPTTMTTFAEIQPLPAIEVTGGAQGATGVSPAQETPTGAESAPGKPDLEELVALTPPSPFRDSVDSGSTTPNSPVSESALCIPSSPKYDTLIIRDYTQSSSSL
smiles,measurement,setting,value
"O=C(C#Cc1ccccc1)N1CCN(c2nccs2)CC1 [Example 1, 1-(3-phenylpropiolyl)-4-(thiazol-2-yl)piperazine]",IC50,[1]; Table I,100 nM
same,IC50,[2],190 nM
"O=C(C#Cc1cccc(Cl)c1)N1CCN(c2nccs2)CC1 [Example AAA24, 4-(Thiazol-2-yl)-1-(3-(3-chlorophenyl)propiolyl)piperazine]",mGluR5-receptor (% inhibition 10 μM) in pigs,[1],88%
same,Reduction of nociceptive behavior of rats compared with control rats [%],[3]; 46.4 mg/kg i.p.,43%
"Cc1cccc(C#CC(=O)N2CCN(c3nccs3)CC2)c1.Cl [Example AAA54, 4-(Thiazol-2-yl)-1-(3-(3-tolyl)propiolyl)piperazine hydrochloride]",mGluR5-receptor (% inhibition 10 μM) in pigs,[1],97%
same,Reduction of nociceptive behavior of rats compared with control rats [%],[3]; 10.0 mg/kg i.v.,72%
"O=C(C#Cc1ccccc1)N1CCN(c2nccs2)CC1 [Example AAA56, 4-(Thiazol-2-yl)-1-(3-phenylpropiolyl)piperazine hydrochloride]",IC50,"[1]; Table II, unit inferred",150 nM
same,Reduction of nociceptive behavior of rats compared with control rats [%],[3]; 46.4 mg/kg i.p.,85%
"Cc1cccc(C#CC(=O)N2CCN(c3nccs3)CC2C)c1 (stereo not shown) [Example AAA68, 2-Methyl-4-(thiazol-2-yl)-1-(3-(3-tolyl)propiolyl)piperazine]",IC50,"[1]; Table II, unit inferred",13 nM
same,Reduction of nociceptive behavior of rats compared with control rats [%],[3]; 46.4 mg/kg p.o.,66%
"O=C(C#Cc1ccccc1)N1CCN(c2ncc(Br)s2)CC1 [Example AAA96, 4-(5-Bromothiazol-2-yl)-1-(3-phenylpropiolyl)piperazine]",IC50,"[1]; Table II, unit inferred",360 nM
"O=C(C#Cc1ccccc1)N1CCN(c2nc(Br)cs2)CC1 [Example AAA97, 4-(4-Bromothiazol-2-yl)-1-(3-phenylpropiolyl)piperazine]",IC50,"[1]; Table II, unit inferred",720 nM
"O=C(C#Cc1ccccc1)N1CCN(c2nc(-c3ccccc3)cs2)CC1 [Example AAA99, 4-(4-Phenylthiazol-2-yl)-1-(3-phenylpropiolyl)piperazine]",mGluR5-receptor (% inhibition 10 μM) in pigs,[1],87%
"CS(=O)(=O)c1nsc(N2CCN(C(=O)C#Cc3ccccc3)CC2)n1 [Example AAA00101, 4-(3-Methansulfonyl-1,2,4-thiadiazol-5-yl)-1-(3-phenylpropiolyl)piperazine]",mGluR5-receptor (% inhibition 10 μM) in pigs,[1],30%
"COc1nsc(N2CCN(C(=O)C#Cc3ccccc3)CC2)n1 [Example AAA00102, 4-(3-Methoxy-1,2,4-thiadiazol-5-yl)-1-(3-phenylpropiolyl)piperazine]",mGluR5-receptor (% inhibition 10 μM) in pigs,[1],61%
"O=C(C#Cc1ccccc1)N1CCN(c2ncns2)CC1 [Example AAA00103, 4-(1,2,4-Thiadiazol-5-yl)-1-(3-phenylpropiolyl)piperazine]",mGluR5-receptor (% inhibition 10 μM) in pigs,[1],83%
"Cc1nsc(N2CCN(C(=O)C#Cc3ccccc3)CC2)n1 [Example AAA00104, 4-(3-Methyl-1,2,4-thiadiazol-5-yl)-1-(3-phenylpropiolyl)piperazine]",mGluR5-receptor (% inhibition 10 μM) in pigs,[1],91%
"O=C(C#Cc1ccccc1)N1CCN(c2nc(C(F)(F)F)ns2)CC1 [Example AAA00105, 4-(3-Trifluoromethyl-1,2,4-thiadiazol-5-yl)-1-(3-phenylpropiolyl)piperazine]",mGluR5-receptor (% inhibition 10 μM) in pigs,[1],65%
"Cc1noc(-c2cnc(N3CCN(C(=O)C#Cc4ccccc4)CC3)s2)n1 [Example AAA00106, 4-(5-(3-Methyl-1,2,4-oxadiazol-5-yl)thiazol-2-yl)-1-(3-phenylpropiolyl)piperazine]",mGluR5-receptor (% inhibition 10 μM) in pigs,[1],68%
"CC(C)(C)c1csc(N2CCN(C(=O)C#Cc3ccc(N)cc3)CC2)n1 [Example AAA00107, 4-(4-tert-Butylthiazol-2-yl)-1-(3-(4-aminophenyl)propiolyl)piperazine]",mGluR5-receptor (% inhibition 10 μM) in pigs,[1],30%
"Cn1ccc2ccc(C#CC(=O)N3CCN(c4nccs4)CC3)cc21 [Example AAA00108, 4-(Thiazol-2-yl)-1-(3-(1-Methyl-indol-6-yl)propiolyl)piperazine]",IC50,"[1]; Table II, unit inferred",1240 nM
"Cc1cc(F)cc(C#CC(=O)N2CCN(c3nccs3)CC2)c1 [Example AAA00110, 4-(Thiazol-2-yl)-1-(3-(3-fluoro-5-methylphenyl)propiolyl)piperazine]",IC50,"[1]; Table II, unit inferred",1390 nM
"Cc1cccc(C#CC(=O)N2CCN(c3nccs3)CC2)c1F [Example AAA00111, 4-(Thiazol-2-yl)-1-(3-(2-fluoro-3-methylphenyl)propiolyl)piperazine]",mGluR5-receptor (% inhibition 10 μM) in pigs,[1],31%
"CNc1cccc(C#CC(=O)N2CCN(c3nccs3)CC2)c1 [Example AAA00112, 4-(Thiazol-2-yl)-1-(3-(3-methylaminophenyl)propiolyl)piperazine]",IC50,"[1]; Table II, unit inferred",560 nM
"CN(C)c1cccc(C#CC(=O)N2CCN(c3nccs3)CC2)c1 [Example AAA00113, 4-(Thiazol-2-yl)-1-(3-(3-dimethylaminophenyl)propiolyl)piperazine]",mGluR5-receptor (% inhibition 10 μM) in pigs,[1],27%
"CN(C)C(=O)C#CC(=O)N1CCN(c2nccs2)CC1 [Example AAA00114, 4-(Thiazol-2-yl)-1-(dimethylcarbamoylpropiolyl)piperazine]",mGluR5-receptor (% inhibition 10 μM) in pigs,[1],14%
"C[S+]([O-])c1cccc(C#CC(=O)N2CCN(c3nccs3)CC2)c1 (stereo not shown) [Example AAA00115, 4-(Thiazol-2-yl)-1-(3-(3-methylsulfinylphenyl)propiolyl)piperazine]",mGluR5-receptor (% inhibition 10 μM) in pigs,[1],17%
"CS(=O)(=O)c1cccc(C#CC(=O)N2CCN(c3nccs3)CC2)c1 [Example AAA00116, 4-(Thiazol-2-yl)-1-(3-(3-methylsulfonylphenyl)propiolyl)piperazine]",mGluR5-receptor (% inhibition 10 μM) in pigs,[1],31%
"C#Cc1cccc(C#CC(=O)N2CCN(c3nccs3)CC2)c1 [Example AAA00117, 4-(Thiazol-2-yl)-1-(3-(3-ethynylphenyl)propiolyl)piperazine]",IC50,"[1]; Table II, unit inferred",26 nM
"CCc1cccc(C#CC(=O)N2CCN(c3nccs3)CC2)c1 [Example AAA00120, 4-(Thiazol-2-yl)-1-(3-(3-ethylphenyl)propiolyl)piperazine]",IC50,"[1]; Table II, unit inferred",260 nM
"O=C(C#Cc1cccc(C(F)F)c1)N1CCN(c2nccs2)CC1 [Example AAA00122, 4-(Thiazol-2-yl)-1-(3-(3-difluoromethylphenyl)propiolyl)piperazine]",IC50,"[1]; Table II, unit inferred",62 nM
